Experimental data as given in patent publication US8652838B2, “Platensimycin biosynthetic gene cluster of Streptomyces platensis” (Wisconsin Alumni Research Foundation, priority 2007, dated 2014).
In brackets after ≈: the same amount, converted by molar mass. Like-named read-outs stand apart in the source and are kept apart here.

Key:
S. aureus infection = conditions: cited from earlier work
S. platensis MA7327 = experiment: antibiotic sensitivity of S. platensis MA7327; type: cell-based, Streptomyces platensis
Text: The inventors have developed an efficient genetic system for in vivo manipulation of PTM/PTN biosynthesis in S. platensis MA7327 via E. coli-S. platensis conjugation. […] Although S. platensis protoplasts can be readily prepared and regenerated with high frequency, introduction of either replicative or integrative plasmid into S. platensis via protoplast-mediated transformation has not been successful (Kieser et al., 2000).

FabH [1] = target: T1, FabH (Staphylococcus aureus, UniProt Q8NXE2); conditions: cited from earlier work
T1 sequence (Q8NXE2 1-313): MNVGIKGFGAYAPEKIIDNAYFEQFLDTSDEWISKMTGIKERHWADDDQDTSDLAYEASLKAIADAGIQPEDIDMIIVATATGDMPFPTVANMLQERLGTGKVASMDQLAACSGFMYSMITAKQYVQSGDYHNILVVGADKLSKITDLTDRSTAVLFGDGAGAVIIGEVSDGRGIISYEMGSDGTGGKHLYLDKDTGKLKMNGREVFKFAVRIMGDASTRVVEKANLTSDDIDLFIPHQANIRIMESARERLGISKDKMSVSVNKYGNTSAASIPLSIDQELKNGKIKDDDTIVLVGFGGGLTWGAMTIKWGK

Streptomyces albus J1074 = experiment: paper disk susceptibility of S. albus J1074; type: cell-based; conditions: 0.5-4 μg on paper disk
Text: (§1) FIGS. 6A-C: Engineering of S. platensis. (FIG. 6A) Additional biosynthetic intermediates and shunt metabolites isolated from the wild-type S. platensis MA7327 strain. (FIG. 6B) Production of PTM (●) and PTN (♦) by the engineered S. platensis SB12002 (iv) and SB12001 (iii) strains with the wild-type S. platensis MA7327 as a control under two fermentation conditions for PTM (i) and PTM and PTN (ii) production. (FIG. 6C) Susceptibility of S. avermitilis and S. albus J1074 to PTM and PTN: 1, negative controls; 2, 4 μg; 3, 4 μg; 4, 2 μg; 5, 1 μg; 6, 0.5 μg of PTM or PTN on each paper disk.
(§2) Having large quantity (multiple grams) of PTM and PTN in hand from the overproducers, the inventors systematically examined the sensitivity of a battery of Streptomyces towards PTM or PTN. Remarkably, they have identified strains that are sensitive to both PTM and PTN, as exemplified by Streptomyces avermitilis, or PTN but not PTM, as exemplified by Streptomyces albus J1074 (FIG. 6C). The differential sensitivity of the organisms tested towards PTM and PTN is consistent with the established mode of action for PTM and PTN (i.e., PTM as a FabB/F inhibitor while PTN as a FabB/F and FabH dual inhibitor)—targeting two essential proteins should lead to lower resistance potential than targeting only one. […]

Streptomyces avermitilis = experiment: paper disk susceptibility of S. avermitilis; type: cell-based; conditions: 0.5-4 μg on paper disk
Text: as §1, §2

[2] = tested on: vancomycin-resistant E. faecium; conditions: cited from earlier work
Streptococcus pneumoniae = conditions: cited from earlier work
Escherichia coli = conditions: cited from earlier work
[3] = animal model studies; cited from earlier work
FabH [4] = target: T1, FabH; conditions: cited from earlier work; remark: listed apart in the source
[5] = tested on: DNA, RNA, protein or cell wall biosynthesis; conditions: whole-cell labeling; cited from earlier work
FabF [6] = target: T2, FabF (Staphylococcus aureus, UniProt Q5TKS0); conditions: cited from earlier work
T2 sequence (Q5TKS0 1-403): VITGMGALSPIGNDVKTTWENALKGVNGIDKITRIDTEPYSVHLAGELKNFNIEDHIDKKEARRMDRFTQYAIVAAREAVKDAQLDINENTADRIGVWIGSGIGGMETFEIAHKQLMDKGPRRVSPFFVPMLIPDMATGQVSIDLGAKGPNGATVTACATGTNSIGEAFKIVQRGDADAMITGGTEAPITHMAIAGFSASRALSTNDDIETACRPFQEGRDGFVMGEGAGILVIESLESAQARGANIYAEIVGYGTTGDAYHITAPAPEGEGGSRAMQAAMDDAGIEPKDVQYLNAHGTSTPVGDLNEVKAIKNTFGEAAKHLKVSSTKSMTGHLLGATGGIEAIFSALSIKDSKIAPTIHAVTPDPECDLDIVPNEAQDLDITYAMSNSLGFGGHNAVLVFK

mammalian cell = conditions: cited from earlier work
FabF [7] = target: T2, FabF; conditions: 14C-radiolabeled malonyl-CoA, polyacrylamide gel electrophoresis; cited from earlier work
[8] = tested on: lipid biosynthesis in S. aureus; conditions: whole-cell labeling; cited from earlier work
S. aureus = conditions: cited from earlier work

## platensimycin [PTM]
S. aureus infection; high doses
  clearing S. aureus infection from a mouse model: effective in clearing S. aureus infection

## CN[C@@H]1[C@@H](O[C@H]2O[C@H](CO)[C@@H](N)[C@H](O)[C@H]2O)OC2C[C@@H](N)[C@@H](O[C@H]3[C@H](O)[C@@H](O)[C@H](N)C[C@@H]3N)OC2[C@@H]1O (stereo partly shown) [apramycin]
S. platensis MA7327
  concentration giving complete inhibition of growth: 25 µg/mL

## CC[C@H]1OC(=O)[C@H](C)[C@@H](O[C@H]2C[C@@](C)(OC)[C@@H](O)[C@H](C)O2)[C@H](C)[C@@H](O[C@@H]2O[C@H](C)C[C@H](N(C)C)[C@H]2O)[C@](C)(O)C[C@@H](C)C(=O)[C@H](C)[C@@H](O)[C@]1(C)O [erythromycin]
S. platensis MA7327
  concentration giving complete inhibition of growth: 10 µg/mL

## C=C(NC(=O)C(=C)NC(=O)c1csc(C2=N[C@@H]3c4csc(n4)[C@H]4NC(=O)c5csc(n5)[C@H]([C@](C)(O)[C@@H](C)O)NC(=O)[C@H]5CSC(=N5)/C(=C/C)NC(=O)[C@H]([C@@H](C)O)NC(=O)c5csc(n5)[C@]3(CC2)NC(=O)[C@H](C)NC(=O)C(=C)NC(=O)[C@H](C)NC(=O)[C@H]([C@@H](C)CC)N[C@@H]2C=Cc3c([C@H](C)O)cc(nc3[C@H]2O)C(=O)O[C@@H]4C)n1)C(N)=O [thiostrepton]
S. platensis MA7327
  concentration giving complete inhibition of growth: 10 µg/mL

## NC[C@H]1O[C@H](O[C@H]2[C@H](O)[C@@H](O[C@H]3O[C@H](CO)[C@@H](O)[C@H](N)[C@H]3O)[C@H](N)C[C@@H]2N)[C@H](O)[C@@H](O)[C@@H]1O [kanamycin]
S. platensis MA7327
  concentration giving complete inhibition of growth: 25 µg/mL

## C=C1C[C@@]23C=CC(=O)[C@@](C)(CCC(=O)Nc4c(O)ccc(C(=O)O)c4O)[C@@H]2C[C@@H]1CC3 [platencin]
FabH [1]
  FabH inhibition: inhibits FabH
S. aureus infection; mouse, continuous infusion 150 μg/h, over 24 h
  reduction of S. aureus cfu in kidney: 3 log
S. aureus infection; mouse, in vivo
  in vivo efficacy: potent in vivo efficacy
  observed toxicity in vivo: without any observed toxicity
Streptomyces albus J1074
  sensitivity of Streptomyces albus J1074: sensitive
Streptomyces avermitilis
  sensitivity of Streptomyces avermitilis: sensitive
[2]
  antibacterial activity compared to platensimycin: increased antibacterial activity
Streptococcus pneumoniae; S. pneumoniae
  antibacterial activity compared to platensimycin: decreased activity
Escherichia coli; efflux-negative E. coli
  antibacterial activity compared to platensimycin: increased antibacterial activity
[3]
  pharmacokinetics: exceedingly poor pharmacokinetics

## C[C@]12C[C@@]34C=CC(=O)[C@@](C)(CCC(=O)Nc5c(O)ccc(C(=O)O)c5O)C3[C@H](CC1C4)O2 (stereo partly shown) [PTM, platensimycin]
FabH [4]
  inhibition of S. aureus FabH: weak inhibition
FabH [1]
  FabH inhibition: does not inhibit FabH to any significant extent
S. aureus infection; mouse, 100 μg/h intravenously with a continuous pump, over 24 hrs
  decrease of S. aureus infection: 10^4-10^5 fold
[5]
  concentration without inhibition of DNA, RNA, protein or cell wall biosynthesis: > 500 µg/mL
Streptomyces avermitilis
  sensitivity of Streptomyces avermitilis: sensitive
FabF [6]; relative to cerulenin
  greater potency than cerulenin as inhibitor of FabF: 200 fold
FabF [6]; single enzyme inhibition assays
  IC50: < 50 nM
Mammalian cell
  mammalian cell toxicity: Low
Streptococcus pneumoniae
  minimal inhibitory concentration: 2.5 µM (≈ 1.1 µg/mL)
Escherichia coli; efflux-negative Escherichia coli
  antibacterial activity: showed antibacterial activity
Escherichia coli; tolC dependent efflux
  effectiveness against Gram-negative Escherichia coli: not very effective
Escherichia coli; wild-type E. coli
  antibacterial activity: not against wild-type E. coli
[3]
  pharmacokinetics: exceedingly poor pharmacokinetics
FabF [7]
  preference for FabF inhibition relative to FabH inhibition: 838 fold
[8]
  IC50 inhibition of lipid biosynthesis: 0.1 µg/mL
S. aureus
  minimal inhibitory concentration: 1 µM (≈ 0.441 µg/mL)
